The results in this text go back to patent US20220136032A1, “SELECTION MEDIUM FOR BACTERIA BELONGING TO GENUS PSEUDOMONAS AND USE THEREOF” (KABUSHIKI KAISHA YAKULT HONSHA, priority 2019, published 2022).

Structures can show the parent of a compound that is named as a salt. Where two headings read alike, the source gives them in different places. Bounds are passed on as bounds.

What all share (test): Measurement of minimum inhibitory concentrations (MICs), liquid medium, OD 660 nm
The test system of assay [1] is P. aeruginosa. The assay is classed as cell-based, Pseudomonas aeruginosa. The following applies: for MIC: Pseudomonas aeruginosa, read-out: MIC (μg/ml) P. aeruginosa. The procedure: (§1) Colonies of E. coli, E. faecium and C. kerstersii, which formed colonies on the plate medium obtained by mixing NAC medium and TSA medium at a ratio of 1:20, and colonies of P. aeruginosa were taken, added to 500 μl of the basal medium, stirred and subjected to the following experiment.
The antibacterial agents were dissolved in sterilized distilled water at 51.2 mg/ml and then sterilized by filtration through a membrane filter of 0.45 μm (DISMIC-25cs: Toyo Roshi).
(§2) After adding 5 μl of the bacterial solutions to the wells and thoroughly stirring, the bacteria were cultured at 37° C. for 24 hours. After culturing, the OD values (660 nm) were measured, and the lowest concentrations of the antibacterial agents at which the growth was inhibited as compared to that of the negative control (MICs: minimum inhibitory concentrations) were determined. As the negative control, the liquid medium to which the antibacterial agents were not added was used.

For assay [2], the system named is E. faecium. Type of assay: cell-based, Enterococcus faecium. The note with it: Trypticase Soy Broth, 37° C. 24 hours. The procedure: as §1
(§3) As antibacterial agents to which the sensitivity of P. aeruginosa is low and to which the sensitivities of E. coli, E. faecium and C. kerstersii are high, cefotaxime sodium salt (Sigma (referred to as “Cefotaxime” below)), ceftizoxime sodium (Fujisawa Healthcare (referred to as “Ceftizoxime” below)), vancomycin hydrochloride (Sigma (referred to as “Vancomycin” below)), minocyclin hydrochloride (Sigma (referred to as “Minocyclin” below)) and cefalotin sodium salt (Sigma (referred to as “Cefalotin” below)) were selected. The antibacterial agents were dissolved in sterilized distilled water at 51.2 mg/ml and then sterilized by filtration through a membrane filter of 0.45 μm (DISMIC-25cs: Toyo Roshi).
(§4) After adding 5 μl of the bacterial solutions to the wells and thoroughly stirring, the bacteria were cultured at 37° C. for 24 hours. After culturing, the OD values (660 nm) were measured, and the lowest concentrations of the antibacterial agents at which the growth was inhibited as compared to that of the negative control (MICs: minimum inhibitory concentrations) were determined. […]

Assay [3] deals with C. kerstersii. Type of assay: cell-based, Comamonas kerstersii. The note with it: for MIC: Comamonas kerstersii, read-out: MIC (μg/ml) C. kerstersii. The procedure:
as §1, §3, §2

Assay [4] concerns E. coli. Type of assay: cell-based. The following applies: Escherichia coli; Trypticase Soy Broth, 37° C. 24 hours; read-out: MIC (μg/ml) E. coli. The procedure:
as §1, §3, §4

Setting [5] is: Trypticase Soy Broth, 37° C. 24 hours.

On to `CC(=O)OCC1=C(C(=O)O)N2C(=O)[C@@H](NC(=O)Cc3cccs3)[C@H]2SC1` [Cefalotin, cefalotin sodium salt], for which the “Sensitivity of P. aeruginosa to the antibacterial agent” value in assay [1] was “low”. Also, the MIC was over 256 µg/mL in assay [1] (setting [5]); 8 µg/mL in assay [2] (Enterococcus faecium, read-out: MIC (μg/ml) E. faecium); 16 µg/mL in assay [3] (setting [5]).

As to `CO/N=C(\C(=O)N[C@@H]1C(=O)N2C(C(=O)O)=C(COC(C)=O)CS[C@H]12)c1csc(N)n1` [Cefotaxime, cefotaxime sodium salt], the MIC in assay [1] (setting [5]) is 16 µg/mL; in assay [4] it was under 0.5 µg/mL.

As to `CO/N=C(\C(=O)N[C@@H]1C(=O)N2C(C(=O)O)=CCS[C@H]12)c1csc(N)n1` [Ceftizoxime, ceftizoxime sodium], the MIC was 64 µg/mL in assay [1] (setting [5]) and under 0.5 µg/mL in assay [4].

In the case of `CN(C)c1ccc(O)c2c1C[C@@H]1C[C@@H]3[C@H](N(C)C)C(=O)C(C(N)=O)=C(O)[C@@]3(O)C(=O)C1=C2O.Cl` [Minocyclin, minocyclin hydrochloride], the “Sensitivity of P. aeruginosa to the antibacterial agent” value in assay [1] is “sensitive”. In addition, the “MIC (μg/ml) P. aeruginosa” value in assay [1] (setting [5]) was under 0.5 µg/mL. Further, the “MIC (μg/ml) E. faecium” value in assay [2] is under 0.5 µg/mL. The “MIC (μg/ml) C. kerstersii” value in assay [3] (setting [5]) is under 0.5 µg/mL.

As for `CN[C@H](CC(C)C)C(=O)N[C@H]1C(=O)N[C@@H](CC(N)=O)C(=O)N[C@H]2C(=O)N[C@H]3C(=O)N[C@H](C(=O)N[C@H](C(=O)O)c4cc(O)cc(O)c4-c4cc3ccc4O)[C@H](O)c3ccc(c(Cl)c3)Oc3cc2cc(c3O[C@@H]2O[C@H](CO)[C@@H](O)[C@H](O)[C@H]2O[C@H]2C[C@](C)(N)[C@H](O)[C@H](C)O2)Oc2ccc(cc2Cl)[C@H]1O` [Vancomycin, vancomycin hydrochloride], the MIC was over 256 µg/mL in assay [1] (24 h) and 128 µg/mL in assay [3] (24 h). Moreover, the “Sensitivity of C. kerstersii to the antibacterial agent” value in assay [3] is “low”.
